Measurements from US20060069132A1, “Azolecarboxamide herbicides” (priority 2004, published 2006).

Legend:
Test in all cases: Test C pre-/postemergence herbicide test
Surinam grass = type: in vivo, Urochloa decumbens; conditions: for Surinam Grass plant response rating: Preemergence, 500 g ai/ha
How it was run: (§1)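 Pre- and postemergence application, solvent/surfactant formulation; post at 1- to 4-leaf stage (2–18 cm). Greenhouse 12–14 d. Visual rating vs controls, 0 = no effect, 100 = complete control.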

woolly cupgrass = type: in vivo, Eriochloa villosa; conditions: for Cupgrass, Woolly plant response rating: 500 g ai/ha
How it was run: as §1

johnsongrass = type: in vivo, Sorghum halepense; conditions: for Johnsongrass plant response rating: 500 g ai/ha
How it was run: as §1

eastern black nightshade = type: in vivo, Solanum ptycanthum; conditions: for Nightshade plant response rating: Preemergence, 500 g ai/ha, scale 0 to 100, 0 no effect, 100 complete control
From the text: (§2) Seeds of plant species selected from bermudagrass (Cynodon dactylon (L.) Pers.), Surinam grass (Urochloa decumbens (Staph) R. D. Webster, previously named Brachiaria decumbens Stapf), cocklebur (Xanthium strumarium L.), corn (Zea mays L.), large crabgrass (Digitaria sanguinalis (L.) Scop.), woolly cupgrass (Eriochloa villosa (Thunb.) Kunth), giant foxtail (Setaria faberi Herrm.), goosegrass (Eleusine indica (L.) Gaertn.), johnsongrass (Sorghum halepense (L.) Pers.), kochia (Kochia scoparia (L.) Schrad.), lambsquarters (Chenopodium album L.), morningglory (Ipomoea coccinea L.), eastern black nightshade (Solanum ptycanthum Dunal), yellow nutsedge (Cyperus esculentus L.), pigweed (Amaranthus retroflexus L.), common ragweed (Ambrosia elatior L.), soybean (Glycine max (L.) Merr.), common (oilseed) sunflower (Helianthus annuus L.) and velvetleaf (Abutilon theophrasti Medik.) were planted and treated preemergence with test chemicals formulated in a non-phytotoxic solvent mixture which included a surfactant.
(§3) At the same time, plants selected from these crop and weed species and also winter barley (Hordeum vulgare L.), blackgrass (Alopecurus myosuroides Huds.), canarygrass (Phalaris minor Retz.), chickweed (Stellaria media (L.) Vill.), downy bromegrass (Bromus tectorum L.), green foxtail (Setaria viridis (L.) Beauv.), Italian ryegrass (Lolium multiflorum Lam.), wheat (Triticum aestivum L.), wild oat (Avenafatua L.) and windgrass (Apera spica-venti (L.) Beauv.) were treated with postemergence applications of some of the test chemicals formulated in the same manner. Plants ranged in height from 2 to 18 cm (1- to 4-leaf stage) for postemergence treatments. Plant species in the flooded paddy test consisted of rice (Oryza sativa), smallflower umbrella sedge (Cyperus difformis L.), ducksalad (Heteranthera limosa (Sw.) Willd.) and barnyardgrass (Echinochloa crus-galli (L.) Beauv.) grown to the 2-leaf stage for testing. Treated plants and controls were maintained in a greenhouse for 12 to 14 days, after which time all species were compared to controls and visually evaluated. Plant response ratings, summarized in Table C, are based on a scale of 0 to 100 where 0 is no effect and 100 is complete control. A dash (-) response means no test result.

velvetleaf = type: in vivo, Abutilon theophrasti; conditions: for Velvetleaf plant response rating: 500 g ai/ha
How it was run: as §1

corn = type: in vivo, Zea mays; conditions: for Corn plant response rating: 500 g ai/ha
How it was run: as §1

[1] = system: common (oilseed) sunflower; type: in vivo, Helianthus annuus; conditions: for Sunflower plant response rating: Preemergence, 500 g ai/ha, scale 0 to 100, 0 no effect, 100 complete control
From the text: as §2, §3

[2] = 125 g ai/ha, scale 0 (no effect) to 100 (complete control), visual, 12 to 14 days, preemergence
[3] = 250 g ai/ha, scale 0 to 100 (0 no effect, 100 complete control), visual, 12 to 14 days, preemergence
[4] = Postemergence, 250 g ai/ha, scale 0 to 100, 0 no effect, 100 complete control
[5] = scale 0 to 100, 0 no effect, 100 complete control
[6] = postemergence, 62 g ai/ha, scale 0 to 100
[7] = Postemergence, 125 g ai/ha, scale 0 to 100, 0 no effect, 100 complete control
[8] = Preemergence, scale 0 to 100, 0 no effect, 100 complete control

C#CCn1nc(C(C)(C)C)cc1C(=O)Nc1cccc(C(=O)NCC)c1 [Compound 50]
Plant response rating (0 = no effect, 100 = complete control), Surinam Grass (Surinam grass; 62 g ai/ha, preemergence): 0 | Plant response rating, Surinam Grass (Surinam grass; [2]): 10 | Plant response rating, Surinam Grass (Surinam grass; [3]): 80 | Plant response rating, Surinam Grass (Surinam grass; [4]): 50 | Surinam Grass plant response rating (Surinam grass; [5]): 85 | Plant response rating, Surinam Grass (Surinam grass; [6]): 10 | Plant response rating (0 = no effect, 100 = complete control), Cupgrass, Woolly (woolly cupgrass; 62 g ai/ha, preemergence): 0 | Plant response rating, Cupgrass, Woolly (woolly cupgrass; [2]): 10 | Plant response rating, Cupgrass, Woolly (woolly cupgrass; [3]): 30 | Cupgrass, Woolly plant response rating (woolly cupgrass; Postemergence, scale 0 to 100): 0 | Plant response rating, Cupgrass, Woolly (woolly cupgrass; [7]): 0 | Plant response rating, Cupgrass, Woolly (woolly cupgrass; [4]): 0 | Cupgrass, Woolly plant response rating (woolly cupgrass; [8]): 70 | Plant response rating, Cupgrass, Woolly (woolly cupgrass; [6]): 0 | Plant response rating (0 = no effect, 100 = complete control), Johnsongrass (johnsongrass; 62 g ai/ha, preemergence): 0 | Plant response rating, Johnsongrass (johnsongrass; [3]): 0 | Johnsongrass plant response rating (johnsongrass; Postemergence, scale 0 to 100): 0 | Plant response rating, Johnsongrass (johnsongrass; [7]): 0 | Plant response rating, Johnsongrass (johnsongrass; [4]): 0 | Johnsongrass plant response rating (johnsongrass; [8]): 0 | Plant response rating, Johnsongrass (johnsongrass; [6]): 0 | Plant response rating (0 = no effect, 100 = complete control), Nightshade (eastern black nightshade; 62 g ai/ha, preemergence): 0 | Plant response rating, Nightshade (eastern black nightshade; [2]): 5 | Plant response rating, Nightshade (eastern black nightshade; [3]): 80 | Nightshade plant response rating (eastern black nightshade): 95 | Plant response rating (0 = no effect, 100 = complete control), Velvetleaf (velvetleaf; 62 g ai/ha, preemergence): 0 | Plant response rating, Velvetleaf (velvetleaf; [2]): 5 | Plant response rating, Velvetleaf (velvetleaf; [3]): 5 | Velvetleaf plant response rating (velvetleaf; Postemergence, scale 0 to 100): 100 | Plant response rating, Velvetleaf (velvetleaf; [4]): 100 | Velvetleaf plant response rating (velvetleaf; [8]): 5 | Plant response rating, Velvetleaf (velvetleaf; [6]): 100 | Plant response rating (0 = no effect, 100 = complete control), Corn (corn; 62 g ai/ha, preemergence): 0 | Plant response rating, Corn (corn; [2]): 0 | Plant response rating, Corn (corn; [3]): 0 | Corn plant response rating (corn; Postemergence, scale 0 to 100): 85 | Plant response rating, Corn (corn; [7]): 80 | Plant response rating, Corn (corn; [4]): 85 | Corn plant response rating (corn; [8]): 10 | Plant response rating, Corn (corn; [6]): 20 | Plant response rating (0 = no effect, 100 = complete control), Sunflower ([1]; 62 g ai/ha, preemergence): 0 | Plant response rating, Sunflower [1, 2]: 0 | Plant response rating, Sunflower [1, 3]: 0 | Sunflower plant response rating [1]: 0

CCc1nn(C(C)(C)C)cc1C(=O)Nc1cccc(C(=O)N(CC)CC)c1 [Compound 182, N-[3-[(diethylamino)carbonyl]phenyl]-1-(1,1-dimethylethyl)-3-ethyl-1H-pyrazole-4-carboxamide]
Surinam Grass plant response rating (Surinam grass; [5]): 85 | pest or weed control at 62 g/ha (Surinam grass; Urochloa decumbens, pre-emergence, 312 h, 62 g ai/ha, preemergence, scale 0 to 100, read-out: Plant response rating, Surinam Grass): 0% | pest or weed control at 125 g/ha (Surinam grass; Urochloa decumbens, pre-emergence, 312 h, 125 g ai/ha, scale 0 (no effect) to 100 (complete control), visual, 12 to 14 days, read-out: Plant response rating, Surinam Grass): 20% | pest or weed control at 62 g/ha (woolly cupgrass; Eriochloa villosa, pre-emergence, 312 h, 62 g ai/ha, preemergence, scale 0 to 100, read-out: Plant response rating, Cupgrass, Woolly): 0% | pest or weed control at 125 g/ha (woolly cupgrass; Eriochloa villosa, pre-emergence, 312 h, 125 g ai/ha, scale 0 (no effect) to 100 (complete control), visual, 12 to 14 days, read-out: Plant response rating, Cupgrass, Woolly): 0% | pest or weed control at 250 g/ha (woolly cupgrass; Eriochloa villosa, pre-emergence, 312 h, 250 g ai/ha, scale 0 to 100 (0 no effect, 100 complete control), visual, 12 to 14 days, read-out: Plant response rating, Cupgrass, Woolly): 0% | Cupgrass, Woolly plant response rating (woolly cupgrass; [8]): 0 | Johnsongrass plant response rating (johnsongrass; [8]): 75 | pest or weed control at 62 g/ha (johnsongrass; Sorghum halepense, pre-emergence, 62 g ai/ha, preemergence, scale 0 to 100, read-out: Plant response rating, Johnsongrass): 0% | pest or weed control at 125 g/ha (johnsongrass; Sorghum halepense, pre-emergence, 125 g ai/ha, scale 0 (no effect) to 100 (complete control), visual, 12 to 14 days, read-out: Plant response rating, Johnsongrass): 35% | Nightshade plant response rating (eastern black nightshade): 95 | pest or weed control at 62 g/ha (eastern black nightshade; pre-emergence, 62 g ai/ha, preemergence, scale 0 to 100, read-out: Plant response rating, Nightshade): 70% | pest or weed control at 125 g/ha (eastern black nightshade; pre-emergence, 125 g ai/ha, scale 0 (no effect) to 100 (complete control), visual, 12 to 14 days, read-out: Plant response rating, Nightshade): 80% | pest or weed control at 62 g/ha (velvetleaf; Abutilon theophrasti, pre-emergence, 62 g ai/ha, preemergence, scale 0 to 100, read-out: Plant response rating, Velvetleaf): 0% | pest or weed control at 125 g/ha (velvetleaf; Abutilon theophrasti, pre-emergence, 125 g ai/ha, scale 0 (no effect) to 100 (complete control), visual, 12 to 14 days, read-out: Plant response rating, Velvetleaf): 0% | Velvetleaf plant response rating (velvetleaf; [8]): 100 | Corn plant response rating (corn; [8]): 0 | Corn plant response rating (crop injury, 0 = no effect, 100 = complete kill) at 62 g/ha (corn; Zea mays, pre-emergence, 312 h, 62 g ai/ha, preemergence, scale 0 to 100): 0% | Corn plant response rating (crop injury, 0 = no effect, 100 = complete kill) at 125 g/ha (corn; Zea mays, pre-emergence, 312 h, 125 g ai/ha, scale 0 (no effect) to 100 (complete control), visual, 12 to 14 days): 0% | Corn plant response rating (crop injury, 0 = no effect, 100 = complete kill) at 250 g/ha (corn; Zea mays, pre-emergence, 312 h, 250 g ai/ha, scale 0 to 100 (0 no effect, 100 complete control), visual, 12 to 14 days): 0% | pest or weed control at 62 g/ha ([1]; Helianthus annuus, pre-emergence, 62 g ai/ha, preemergence, scale 0 to 100, read-out: Plant response rating, Sunflower): 0% | pest or weed control at 125 g/ha ([1]; Helianthus annuus, pre-emergence, 125 g ai/ha, scale 0 (no effect) to 100 (complete control), visual, 12 to 14 days, read-out: Plant response rating, Sunflower): 0% | Sunflower plant response rating [1]: 0
